According to PubChem BioAssay AID1996:
In brackets after ≈: the same amount, converted by molar mass.

Settings: buffer; pH 7.4; 200.0 µM

| SMILES | solubility kinetic [µg/mL] |
| --- | --- |
| CC(=O)c1cccc(NC(=O)NC2CCCCCCC2)c1 | 2.5 (≈ 8.67 µM) |
| CCOc1cc(CN2CCN(c3ncccn3)CC2)ccc1OC | 43.4 (≈ 132 µM) |
| O=C(NC(=S)Nc1cccnc1Cl)c1ccco1 | 32.2 (≈ 114 µM) |
| CCN(CC)C(=S)SCC(=O)Nc1ncc2c(n1)CCCC2=O | 15.5 (≈ 44 µM) |
| CC1Cc2ccccc2N1S(=O)(=O)c1cccc(C(=O)NCc2ccco2)c1 (stereo unspecified) | 14.7 (≈ 37.1 µM) |
| S=C(Nc1ccccn1)NC1CCCCC1 | 5.7 (≈ 24.2 µM) |
| Cc1ccc(C(=O)COC(=O)[C@@H](NC(=O)c2ccco2)C(C)C)s1 | > 52.4 |
| Cc1c(NC(=S)NC(=O)c2ccc(Cl)cc2)c(=O)n(-c2ccccc2)n1C | > 60.1 |
| CN(CC(=O)Nc1cccc(C(F)(F)F)c1)Cc1ccccc1 | 20.8 (≈ 64.5 µM) |
| COc1ccc(C)cc1NC1=NC(C)(C)CS1 | 36.1 (≈ 144 µM) |
| O=C(CSC(=S)N1CCCCC1)Nc1ncc2c(n1)CCCC2=O | 11.3 (≈ 31 µM) |
| Cc1ccc(Cl)cc1NS(=O)(=O)c1cn(C)nc1C | > 45 |
| CCOc1ccccc1NC(=O)Nc1ccsc1C(=O)OC | 7.9 (≈ 24.7 µM) |
| COc1ccccc1C(=O)OC1CCCN(C)C1.Cl (stereo unspecified) | > 42.9 |
| Cc1ccc(S(=O)(=O)N2CCOCC2)cc1NC(=O)COC(=O)c1ccc(Cl)nc1 | > 68.1 |
| C=CCNC(=O)c1ccc(CSc2nc3ccccc3s2)cc1 | 8.2 (≈ 24.1 µM) |
| Cc1cccc(OC(=O)c2cccnc2)c1C | 25 (≈ 110 µM) |
| O=C(COC(=O)c1cc(Cl)nc(Cl)c1)NCc1ccc2c(c1)OCO2 | 12.1 (≈ 31.6 µM) |
| Cc1cc(NS(=O)(=O)c2c(C)c(C)cc(C)c2C)no1 | > 44.2 |
| CCc1c(SCCC(=O)O)nc2ccccc2c1C | > 41.3 |
| Cc1cccc(NC(=O)c2ccc(S(=O)(=O)N3CCCC3)cc2)c1C | 2 (≈ 5.58 µM) |
| O=C(Nc1cccc(Cl)c1)c1ccc2c(c1)OCCO2 | 6.3 (≈ 21.7 µM) |
| Cc1cc(=O)oc2cc(OCC(=O)NC3CCCC3)ccc12 | 22.9 (≈ 76 µM) |
| O=C(Nc1ccccc1C(=O)N1CCCCC1)NC1CCCCC1 | > 49.4 |
| CCOc1ccc(C2(C)CC(=O)N(C)C2=O)cc1 (stereo unspecified) | 11.4 (≈ 46.1 µM) |

| SMILES | solubility kinetic [µg/mL] |
| --- | --- |
| COc1cccc(-c2noc(-c3ccc(Br)o3)n2)c1 | 0.5 (≈ 1.56 µM) |
| CC12CC3CC(C)(C1)CC(C(O)CN1CCOCC1)(C3)C2.Cl (stereo unspecified) | > 49.5 |
| CCCOc1ccc(C2Nc3cccc4cccc(c34)N2)cc1 | 3.8 (≈ 12.5 µM) |
| Cc1ccc(OC(C)C(=O)N(C)Cc2ccccc2)c([N+](=O)[O-])n1 (stereo unspecified) | 46.9 (≈ 142 µM) |
| COCCN1C(=O)C(=O)/C(=C(/O)c2ccc(C)cc2)C1c1ccccn1 (stereo unspecified) | > 52.9 |
| COc1ccc(C(=O)COc2ccc(C)cc2NC(C)=O)cc1 | 36.7 (≈ 117 µM) |
| COc1ccc(Br)cc1CN1CCN(c2ncccn2)CC1 | 38.8 (≈ 107 µM) |
| CN(C)CC/C=C1/c2cc(F)ccc2Sc2ccc(Cl)cc21.Cl | 32.8 |
| COC(=O)c1ccsc1NS(=O)(=O)c1ccccc1 | 44.1 (≈ 148 µM) |
| Cc1cc(NS(=O)(=O)c2ccc(NC(=O)c3ccc([N+](=O)[O-])s3)cc2)nc(C)n1 | > 65 |
| CC(=O)N(C)c1ccc(NC(=O)Cc2cccs2)cc1 | 42.6 (≈ 148 µM) |
| Cc1cc2oc(=O)cc(CN3CCOCC3)c2cc1Cl | 4.3 (≈ 14.6 µM) |
| Cc1cc(NCc2ccccc2)c2ccccc2n1.Cl | > 42.7 |
| CC(C)CN=CC1=C(O)c2ccccc2C1=O | 29.5 (≈ 129 µM) |
| Cc1cc(C)cc(NS(=O)(=O)c2cccs2)c1 | > 40.1 |
| O=C(NCC1CCCO1)c1ccc([N+](=O)[O-])o1 (stereo unspecified) | > 36 |
| CCN(CC)C(=O)CSC(Nc1ccc(F)cc1)=C(C#N)C#N | > 49.9 |
| NC(=O)c1ccc(Nc2ccc3c(c2)CCC3)c([N+](=O)[O-])c1 | 2.6 (≈ 8.74 µM) |
| Cc1ccc(C)c(C(=O)CCC(=O)Nc2ccc(N3CCN(C)CC3)cc2C)c1 | 55.8 (≈ 142 µM) |
| CC(C)CNC(=O)c1ccc2c(c1)C(=O)N(C1CCCCC1)C2=O | 4.4 (≈ 13.4 µM) |
| O=C(CCNC(=O)c1ccccc1)NC1CCCc2ccccc21 (stereo unspecified) | 43.4 (≈ 135 µM) |
| CCCNC(=O)CSc1nccn1Cc1ccc(OC)cc1 | > 47.9 |
| CCC(CC)C(=O)N1CCN(c2ccccc2)CC1 | > 39.1 |
| Cc1ccc(N2C(=O)C(Cl)=C(N3CCOCC3)C2=O)c(C)c1 | 36.3 (≈ 113 µM) |
| COc1ccccc1C1=NOC(CN2C(=O)c3ccccc3S2(=O)=O)C1 (stereo unspecified) | 34.6 (≈ 92.9 µM) |

| SMILES | solubility kinetic [µg/mL] |
| --- | --- |
| CC1=C([N+](=O)[O-])C(c2ccccc2Cl)NC(=O)N1C (stereo unspecified) | > 42.3 |
| CN(C)c1ccc(C(=S)N2CCCC2)cc1Br | 44 (≈ 140 µM) |
| Cn1c(=NC(=O)COc2ccccc2)sc2cccc(F)c21 | < 0.3 |
| CSc1cccc(NC(=O)C(=O)NCc2ccccc2)c1 | < 0.3 |
| C1=C(c2ccccc2)CCNC1.Cl | 24.9 |
| c1ccc2oc(NC3=NCN(C4CCCCC4)CN3)nc2c1 | 1.3 (≈ 4.34 µM) |
| CCNC(=O)COC(=O)/C=C/c1cccc(F)c1 | > 37.7 |
| Cc1ccccc1NC(=O)CCN1CCCC1.Cl | > 40.3 |
| CS(=O)(=O)N1CCN=C1SCc1ccc(F)cc1 | > 43.3 |
| COCCNC(=O)c1ccccc1NC(=O)Nc1ccccc1 | > 47 |
| CCC(=O)Nc1cccc(-c2cn3cccc(C)c3n2)c1 | 39.8 (≈ 142 µM) |
| CNC(=O)OCCSCCS(=O)(=O)c1ccc(Cl)cc1 | 16.6 (≈ 49.1 µM) |
| CN(C)CCCNC(=O)N1c2ccccc2C=Cc2ccccc21.Cl | > 53.7 |
| Cc1c(C(=O)N(C)Cc2nc3ccccc3c(=O)[nH]2)oc2ccccc12 | 4.6 (≈ 13.2 µM) |
| O=C(O)c1cc(-c2ccc(Br)s2)nc2ccccc12 | > 50.1 |
| O=Cc1ccc(C(=O)OCC(=O)Nc2ccc(F)cc2F)cc1 | 3.7 (≈ 11.6 µM) |
| O=C(Cc1ccc([N+](=O)[O-])cc1)c1ccc(O)cc1O | > 41 |
| O=C1N=C(N2CCCCC2)S/C1=C\c1ccncc1 | > 41 |
| Cc1cc(C)cc(C(=O)NCC(=O)N2CCC(C(N)=O)CC2)c1 | > 47.6 |
| CCCN1C(=O)C(O)(c2c(C)[nH]c3ccccc23)c2ccccc21 (stereo unspecified) | 26.3 (≈ 82.1 µM) |
| COc1ccc(S(N)(=O)=O)cc1C(=O)OCC(=O)N1CCCC(C)C1 (stereo unspecified) | > 55.6 |
| COc1cc(OC)nc(NC(=O)NS(=O)(=O)c2ccccc2Cl)n1 | 45 (≈ 121 µM) |
| N#Cc1nccnc1N1CCN(C(=O)Nc2ccccc2)CC1 | > 46.3 |
| Cc1cc(C)c(S(=O)(=O)N2CCc3ccccc32)c(C)c1 | < 0.6 |
| O=C1COc2ccc(C(=O)COC(=O)c3ccc(F)cc3Cl)cc2N1 | 5.3 (≈ 14.6 µM) |

| SMILES | solubility kinetic [µg/mL] |
| --- | --- |
| COc1ccccc1NC(=O)CC(=O)c1cccc([N+](=O)[O-])c1 | 2.9 (≈ 9.23 µM) |
| CC(C)(C)C(=O)CSc1ncnc2sc3c(c12)CCC3 | 0.7 (≈ 2.28 µM) |
| CCSc1ncc(Cl)c(C(=O)Nc2cc(C)ccc2C)n1 | < 0.2 |
| Oc1c(Cl)cc(Cl)cc1CNc1nccs1 | 2.9 (≈ 10.5 µM) |
| CCOc1ccc(NC(=O)c2ccc(-c3csc(C)n3)cc2)cc1 | < 0.4 |
| CC(C)c1ccc(CNc2ncc(Br)cn2)cc1 | 0.4 (≈ 1.31 µM) |
| Cc1c(C(=O)c2ccc(F)cc2F)c2ccccn2c1CCC#N | 44.4 (≈ 137 µM) |
| CC(C)(C)SCCNS(=O)(=O)c1ccc(C#N)cc1 | 18.1 (≈ 60.7 µM) |
| Cc1cc([N+](=O)[O-])nn1CC(=O)NCc1ccccc1 | > 41.1 |
| Nc1nc(-c2ccc(NC(=O)c3ccco3)cc2)cs1 | > 42.8 |
| CCn1c(SC(C)C(=O)NCC2CCCO2)nc2ccccc21 (stereo unspecified) | 49.9 (≈ 150 µM) |
| O=C(Nc1nccs1)C1CCCN1/C=C/C(=O)C(F)(F)F (stereo unspecified) | 46.1 (≈ 144 µM) |
| CCSc1nsc(NC(=O)Nc2ccccc2F)n1 | 1.4 (≈ 4.69 µM) |
| CCCNc1nc(N2CCCC2)nc(N2CCCC2)n1 | 33.6 (≈ 122 µM) |
| C/C(=N\OCC(=O)Nc1ccccc1C(=O)O)c1cccs1 | > 47.8 |
| Cc1cccc(NC2=C(Cl)C(=O)OC2OC(C)C)c1 (stereo unspecified) | > 42.3 |
| CCOc1ccccc1N1CN(Cc2ccccc2)CNC1=S | > 49.1 |
| CCN(CC)S(=O)(=O)c1ccc2nc(CCl)[nH]c2c1 | > 45.3 |
| Cc1csc(NC(=O)c2ccc3nc[nH]c3c2)n1 | > 38.7 |
| O=C(c1cccc(F)c1)N1CCC2(CC1)NCCc1[nH]cnc12 | > 47.2 |
| O=Cc1ccc(OCC(=O)Nc2ccccc2-c2ccccc2)cc1 | 0.8 (≈ 2.41 µM) |
| COc1ccc(OCC(O)CNS(=O)(=O)c2ccc(C)cc2)cc1 (stereo unspecified) | > 52.7 |
| CCOC(=O)CNc1nc(Cl)nc(NC(C)(C)C)n1 | > 43.2 |
| N#Cc1ccc(OCCN2CCc3ccccc3C2)cc1 | 41 (≈ 147 µM) |
| O=c1oc2ccccc2c(Nc2ccc(F)cc2)c1[N+](=O)[O-] | 8.4 (≈ 28 µM) |

| SMILES | solubility kinetic [µg/mL] |
| --- | --- |
| CC(=O)c1c(C)n(CCc2ccc(Cl)cc2)c2ccc(O)cc12 | < 0.7 |
| COc1ccc(CNCc2ccncc2)c(OC)c1.Cl | > 44.2 |
| CN1CCN(S(=O)(=O)c2ccc(Cl)c3ccccc23)CC1 | 45.1 (≈ 139 µM) |
| Cc1[nH]n(-c2ccccc2)c(=O)c1C=NCC1CCCO1 (stereo unspecified) | > 42.8 |
| Cc1ccc(C(=O)NCc2ccc3c(c2)OCO3)cc1 | 34.8 (≈ 129 µM) |
| Cc1ccn2c(NC(=O)c3ccccc3)c(-c3ccccc3)nc2c1 | 2 (≈ 6.11 µM) |
| CC(CN1CCOCC1)OC(=O)Cc1ccccc1.Cl (stereo unspecified) | 33.3 |
| COC(=O)c1ccc(/C=C/C(=O)OCC(=O)NCc2cccs2)cc1 | 27.4 (≈ 76.2 µM) |
| COC(=O)C[N+](C)(C)C/C=C\c1ccccc1.[Br-] | > 47.1 |
| Oc1ccccc1N1CCN(C(c2ccccc2)c2ccccc2)CC1 | 0.4 (≈ 1.16 µM) |
| Cc1ccccc1OCC(=O)NCCCNC(=O)c1cccnc1 | > 49.1 |
| O=C(CC1NCCNC1=O)NC1Cc2ccccc2C1 (stereo unspecified) | > 41 |
| COc1nc(NC(=O)c2ccc(F)cc2)nc(OC)c1-c1ccccc1 | 6 (≈ 17 µM) |
| COc1nccnc1NS(=O)(=O)c1ccc(N)cc1 | > 42 |
| Cc1noc(C(=O)NC2CCCCC2)c1Cl | 35.6 (≈ 147 µM) |
| O=C(CSc1nc2ccccc2c(=O)[nH]1)Nc1ccc([N+](=O)[O-])cc1 | 5 (≈ 14 µM) |
| CN(C)S(=O)(=O)Nc1ccccc1F | 30.2 (≈ 138 µM) |
| O=C(NCCCCc1ccccc1)c1ccccc1Br | 8.6 (≈ 25.9 µM) |
| Cc1cc(Nc2cccc(Cl)c2)c2ccccc2n1 | 32.5 (≈ 121 µM) |
| O=C(Nc1cccc2ccccc12)c1ccccc1Cl | 1.7 (≈ 6.03 µM) |
| CCOC(=O)C1(Cc2ccccc2)CCCN(CCO)C1 (stereo unspecified) | > 43.7 |
